# Assay results taken from PubChem BioAssay (NCI).
#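 96-well plates; 48 h exposure; 5 concentrations. Endpoints by linear interpolation between flanking doses. Not reached: highest tested concentration assigned. The concentration for 50% growth inhibition is given as GI50. TGI denotes the concentration required for complete inhibition of growth.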
# How the values were obtained:
# Assay in all cases: NCI anticancer screen, dose series, 48 h
# 786-0 renal = tested on: 786-0 renal
# A498 renal = tested on: A498 renal
# A549 NSCLC = tested on: A549 NSCLC
# ACHN renal = tested on: ACHN renal
# BT-549 breast = tested on: BT-549 breast
# CAKI-1 renal = tested on: CAKI-1 renal
# CCRF-CEM leukemia = tested on: CCRF-CEM leukemia
# COLO 205 colon = tested on: COLO 205 colon
# DU-145 prostate = tested on: DU-145 prostate
# EKVX NSCLC = tested on: EKVX NSCLC
# HCC-2998 colon = tested on: HCC-2998 colon
# HCT-116 colon = tested on: HCT-116 colon
# HCT-15 colon = tested on: HCT-15 colon
# HOP-62 NSCLC = tested on: HOP-62 NSCLC
# HOP-92 NSCLC = tested on: HOP-92 NSCLC
# HT29 colon = tested on: HT29 colon
# IGROV1 ovarian = tested on: IGROV1 ovarian
# K-562 leukemia = tested on: K-562 leukemia
# KM12 colon = tested on: KM12 colon
# LOX IMVI melanoma = tested on: LOX IMVI melanoma
# M14 melanoma = tested on: M14 melanoma
# MALME-3M melanoma = tested on: MALME-3M melanoma
# MCF7 breast = tested on: MCF7 breast
# MDA-MB-231 breast = tested on: MDA-MB-231 breast
# MDA-MB-435 = tested on: MDA-MB-435
# MOLT-4 leukemia = tested on: MOLT-4 leukemia
# NCI-H226 lung = tested on: NCI-H226 lung
# NCI-H23 lung = tested on: NCI-H23 lung
# NCI-H460 lung = tested on: NCI-H460 lung
# NCI-H522 lung = tested on: NCI-H522 lung
# NCI/ADR-RES ovarian = tested on: NCI/ADR-RES ovarian
# OVCAR-4 ovarian = tested on: OVCAR-4 ovarian
# OVCAR-5 ovarian = tested on: OVCAR-5 ovarian
# OVCAR-8 ovarian = tested on: OVCAR-8 ovarian
# PC-3 prostate = tested on: PC-3 prostate
# RPMI-8226 leukemia = tested on: RPMI-8226 leukemia
# RXF 393 renal = tested on: RXF 393 renal
# SF-268 CNS = tested on: SF-268 CNS
# SF-295 CNS = tested on: SF-295 CNS
# SF-539 CNS = tested on: SF-539 CNS
# SK-MEL-2 melanoma = tested on: SK-MEL-2 melanoma
# SK-MEL-28 melanoma = tested on: SK-MEL-28 melanoma
# SK-MEL-5 melanoma = tested on: SK-MEL-5 melanoma
# SK-OV-3 ovarian = tested on: SK-OV-3 ovarian
# SN12C renal = tested on: SN12C renal
# SNB-19 CNS = tested on: SNB-19 CNS
# SNB-75 CNS = tested on: SNB-75 CNS
# SR leukemia = tested on: SR leukemia
# SW-620 colon = tested on: SW-620 colon
# T-47D breast = tested on: T-47D breast
# TK-10 renal = tested on: TK-10 renal
# U251 CNS = tested on: U251 CNS
# UACC-257 melanoma = tested on: UACC-257 melanoma
# UACC-62 melanoma = tested on: UACC-62 melanoma
# UO-31 renal = tested on: UO-31 renal
structure (smiles),measurement,setting,value
CCCCCc1ccc(S(=O)(=O)Nc2cc(-c3csc(NC(=O)CN4CCN(CCO)CC4)n3)ccc2OC)cc1,GI50,786-0 renal,1850 nM
same,TGI,786-0 renal,3390 nM
same,GI50,A498 renal,1580 nM
same,TGI,A498 renal,2950 nM
same,GI50,A549 NSCLC,1890 nM
same,TGI,A549 NSCLC,4180 nM
same,GI50,ACHN renal,1810 nM
same,TGI,ACHN renal,3280 nM
same,GI50,BT-549 breast,1550 nM
same,TGI,BT-549 breast,3100 nM
same,GI50,CAKI-1 renal,1620 nM
same,TGI,CAKI-1 renal,3320 nM
same,GI50,CCRF-CEM leukemia,2540 nM
same,TGI,CCRF-CEM leukemia,7830 nM
same,GI50,COLO 205 colon,1610 nM
same,TGI,COLO 205 colon,3110 nM
same,GI50,DU-145 prostate,1890 nM
same,TGI,DU-145 prostate,3600 nM
same,GI50,EKVX NSCLC,1690 nM
same,TGI,EKVX NSCLC,3590 nM
same,GI50,HCC-2998 colon,1930 nM
same,TGI,HCC-2998 colon,3800 nM
same,GI50,HCT-116 colon,1720 nM
same,TGI,HCT-116 colon,3240 nM
same,GI50,HCT-15 colon,1860 nM
same,TGI,HCT-15 colon,3650 nM
same,GI50,HOP-62 NSCLC,1660 nM
same,TGI,HOP-62 NSCLC,3180 nM
same,GI50,HOP-92 NSCLC,1500 nM
same,TGI,HOP-92 NSCLC,3000 nM
same,GI50,HT29 colon,1890 nM
same,TGI,HT29 colon,3750 nM
same,GI50,IGROV1 ovarian,1920 nM
same,TGI,IGROV1 ovarian,4010 nM
same,GI50,K-562 leukemia,2690 nM
same,TGI,K-562 leukemia,> 100000 nM
same,GI50,KM12 colon,1920 nM
same,TGI,KM12 colon,3700 nM
same,GI50,LOX IMVI melanoma,1730 nM
same,TGI,LOX IMVI melanoma,3240 nM
same,GI50,M14 melanoma,1710 nM
same,TGI,M14 melanoma,3240 nM
same,GI50,MALME-3M melanoma,1640 nM
same,TGI,MALME-3M melanoma,3150 nM
same,GI50,MCF7 breast,1620 nM
same,TGI,MCF7 breast,3200 nM
same,GI50,MDA-MB-231 breast,1940 nM
same,TGI,MDA-MB-231 breast,3830 nM
same,GI50,MDA-MB-435,1700 nM
same,TGI,MDA-MB-435,3210 nM
same,GI50,MOLT-4 leukemia,3170 nM
same,TGI,MOLT-4 leukemia,10600 nM
same,GI50,NCI-H226 lung,1900 nM
same,TGI,NCI-H226 lung,3880 nM
same,GI50,NCI-H23 lung,1930 nM
same,TGI,NCI-H23 lung,4380 nM
same,GI50,NCI-H460 lung,1840 nM
same,TGI,NCI-H460 lung,3460 nM
same,GI50,NCI-H522 lung,1860 nM
same,TGI,NCI-H522 lung,3580 nM
same,GI50,NCI/ADR-RES ovarian,3490 nM
same,TGI,NCI/ADR-RES ovarian,14100 nM
same,GI50,OVCAR-4 ovarian,2050 nM
same,TGI,OVCAR-4 ovarian,5120 nM
same,GI50,OVCAR-5 ovarian,2190 nM
same,TGI,OVCAR-5 ovarian,5440 nM
same,GI50,OVCAR-8 ovarian,1820 nM
same,TGI,OVCAR-8 ovarian,3520 nM
same,GI50,PC-3 prostate,2680 nM
same,TGI,PC-3 prostate,7880 nM
same,GI50,RPMI-8226 leukemia,1780 nM
same,TGI,RPMI-8226 leukemia,4280 nM
same,GI50,RXF 393 renal,1380 nM
same,TGI,RXF 393 renal,3010 nM
same,GI50,SF-268 CNS,1700 nM
same,TGI,SF-268 CNS,3400 nM
same,GI50,SF-295 CNS,1890 nM
same,TGI,SF-295 CNS,3740 nM
same,GI50,SF-539 CNS,1540 nM
same,TGI,SF-539 CNS,2950 nM
same,GI50,SK-MEL-2 melanoma,1780 nM
same,TGI,SK-MEL-2 melanoma,3360 nM
same,GI50,SK-MEL-28 melanoma,1770 nM
same,TGI,SK-MEL-28 melanoma,3250 nM
same,GI50,SK-MEL-5 melanoma,1770 nM
same,TGI,SK-MEL-5 melanoma,3200 nM
same,GI50,SK-OV-3 ovarian,1810 nM
same,TGI,SK-OV-3 ovarian,3300 nM
same,GI50,SN12C renal,1940 nM
same,TGI,SN12C renal,3690 nM
same,GI50,SNB-19 CNS,2050 nM
same,TGI,SNB-19 CNS,4590 nM
same,GI50,SNB-75 CNS,1390 nM
same,TGI,SNB-75 CNS,2750 nM
same,GI50,SR leukemia,1760 nM
same,TGI,SR leukemia,5230 nM
same,GI50,SW-620 colon,1750 nM
same,TGI,SW-620 colon,3300 nM
same,GI50,T-47D breast,1790 nM
same,TGI,T-47D breast,3780 nM
same,GI50,TK-10 renal,1940 nM
same,TGI,TK-10 renal,3960 nM
same,GI50,U251 CNS,1730 nM
same,TGI,U251 CNS,3410 nM
same,GI50,UACC-257 melanoma,1660 nM
same,TGI,UACC-257 melanoma,3220 nM
same,GI50,UACC-62 melanoma,1810 nM
same,TGI,UACC-62 melanoma,3540 nM
same,GI50,UO-31 renal,1520 nM
same,TGI,UO-31 renal,3030 nM
